The source of these data is US4954485A, “2',3'-dideoxy-4-thio-uridine derivatives, process for their preparation and antivirus agents using them” (priority 1987, dated 1990).

Where two headings read alike, the source gives them in different places.

Format in all cases: cell-based
The subject of assay [1] is Moloney-murine leukemia virus. The assay is described as follows: Antivirus effect on Moloney-murine leukemia virus in SC-1 cells (method of Rowe et al), Table 1. The text has this:
(§1) The antivirus effect of the compound of general formula [II']of the invention was ascertained according to the test method by Rowe et al (J. W. Virology 1970, 42, 1136).
(§2) Virus: Moloney-murine leukemia virus.

The subject of the next assay is Rous sarcoma virus (RSV). The assay is described as follows: Effect on Rous sarcoma virus (RSV): inhibition of transformation of chick embryo fibroblast, Table 2. Particulars: 4TO7, RSV infected about 30 minutes, judged under microscope after 4 to 7 days, concentration at which transformation was inhibited, read-out: Antivirus effect (on RSV), Concentration. The method, then:
EXAMPLE 2. EFFECT ON ROUS SARCOMA VIRUS (RSV) Employing cultured cells of the first generation (chick embryo fibroblast),RSV was infected for about 30 minutes. To this were added the samples diluted stepwise, and, after 4 to 7 days, which stage the transformation of cells due to RSV infection was inhibited at was judged under microscope.

The test system of assay [2] is HIV (human immunodeficiency virus). Description: Effect on HIV: inhibition of transformation of MT-4 cells due to HIV infection, Table 3. Particulars: Human immunodeficiency virus 1, MT4, 72 h, HIV infected 1 hour at 37° C, judged under microscope after 3 days, concentration at which transformation was inhibited, read-out: Antivirus effect (on HIV), Concentration. The method, then:
EFFECT ON HIV (HUMAN IMMUNODEFICIENCY VIRUS)
(§3) Employing MT-4 cells, HIV was infected for 1 hour at 37° C. To this were added the samples diluted stepwise, and, after 3 days, which stage the transformation of cells due to HIV infection was inhibited at was judged under microscope.

The subject of assay [3] is Moloney-murine leukemia virus, RSV, HIV. Description: Antivirus effect, summary of Table 1 through 3. To be noted: as shown in Table 1 through 3. The procedure: as §1, §2
Employing cultured cells of the first generation (chick embryo fibroblast),RSV was infected for about 30 minutes. To this were added the samples diluted stepwise, and, after 4 to 7 days, which stage the transformation of cells due to RSV infection was inhibited at was judged under microscope.
as §3

Where [4] appears, read: Moloney-murine leukemia virus, SC-1 cells, read-out: ED50 (the source's name).

In the case of `Cc1cn([C@H]2C[C@H](N=[N+]=[N-])[C@@H](CO)O2)c(=O)[nH]c1=O` [AZT, 3Azido-3deoxy-thymidine], in assay [1] (SC-1, read-out: ED50), the EC50 came out at 0.02 µM.
As to `O=c1[nH]c(=S)ccn1[C@H]1CC[C@@H](CO)O1` [Compound of invention, 2',3'-dideoxy-4-thio-uridine], the EC50 in assay [1] (setting [4]) stood at 3.7 µM. Besides, the minimal effective concentration with Rous sarcoma virus (RSV) is 5 to 10 µg/mL; in assay [2] it was 10 µg/mL. In addition, the “antivirus effect compared with DDC” value in assay [3] was “excellent antivirus effect similar to that of DDC”.
In the case of `Nc1ccn([C@H]2CC[C@@H](CO)O2)c(=O)n1` [DDC, 2',3Dideoxy-cytidine], the EC50 in assay [1] (setting [4]) amounted to 4 µM. Moreover, the values for the minimal effective concentration (in the assay on Rous sarcoma virus (RSV); in assay [2]) were 0.5 to 1 µg/mL and 1 µg/mL, respectively.
